Values of other authors in patent US11596657B2, “Use of AhR agonist for the preventive or curative treatment of metabolic syndrome and the associated disorders” (INSTITUT NATIONAL DE LA RECHERCHE AGRONOMIQUE, priority 2016, dated 2023).

Assays:
[1] = tested on: male C57Bl/6J mice fed a Western diet
human AhR = target: T1, human AhR (Homo sapiens, UniProt P35869); conditions: potency compared with TCDD
T1 sequence (P35869 11-848): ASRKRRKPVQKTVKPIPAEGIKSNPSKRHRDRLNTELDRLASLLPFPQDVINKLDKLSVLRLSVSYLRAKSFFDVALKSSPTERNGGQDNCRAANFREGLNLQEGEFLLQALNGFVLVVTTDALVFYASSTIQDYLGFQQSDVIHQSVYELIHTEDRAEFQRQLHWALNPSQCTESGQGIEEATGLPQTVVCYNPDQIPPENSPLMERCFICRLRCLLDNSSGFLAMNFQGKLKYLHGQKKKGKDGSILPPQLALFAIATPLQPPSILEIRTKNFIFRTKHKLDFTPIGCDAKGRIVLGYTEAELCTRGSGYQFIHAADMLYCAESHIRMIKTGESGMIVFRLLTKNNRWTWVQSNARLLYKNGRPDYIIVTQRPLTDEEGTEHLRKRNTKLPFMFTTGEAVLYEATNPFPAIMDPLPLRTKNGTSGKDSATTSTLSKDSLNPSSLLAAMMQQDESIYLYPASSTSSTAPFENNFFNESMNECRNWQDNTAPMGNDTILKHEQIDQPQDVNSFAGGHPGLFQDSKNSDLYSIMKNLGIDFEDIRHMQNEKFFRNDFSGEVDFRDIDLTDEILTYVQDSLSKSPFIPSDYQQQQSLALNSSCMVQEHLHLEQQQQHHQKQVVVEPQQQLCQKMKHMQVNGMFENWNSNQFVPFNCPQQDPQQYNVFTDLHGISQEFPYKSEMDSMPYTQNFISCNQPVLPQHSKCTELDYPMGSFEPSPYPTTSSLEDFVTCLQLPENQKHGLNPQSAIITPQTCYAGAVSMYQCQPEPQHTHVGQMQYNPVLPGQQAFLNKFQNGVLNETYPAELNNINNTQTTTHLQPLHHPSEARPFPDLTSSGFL

Structure (SMILES): Cc1ccccc1N=Nc1ccc(NC(=O)c2ccnn2C)c(C)c1 [CH-223191]
- obesity, adiposity and liver steatosis [1]: significantly reduce obesity and adiposity and ameliorates liver steatosis

Structure (SMILES): Cc1cc(C)c(C=C2C(=O)Nc3ccccc32)[nH]1 [SU5416, 3-(3,5-dimethyl-1H-pyrrol-2-ylmethylene)-1,3-dihydro-indole-2-one]
- activation of human AhR (human AhR): activates the human AhR with a potency approaching TCDD

Structure (SMILES): O=c1cc(-c2ccccc2)oc2c1ccc1ccccc12 [α-naphthoflavone]
- obesity, adiposity and liver steatosis [1]: significantly reduce obesity and adiposity and ameliorates liver steatosis
